Patent US20210181182A1, “METHOD FOR IDENTIFICATION OF PERTURBAGENS OF PARTICULAR BIOLOGICAL PROCESSES AND CELL SYSTEMS WITHIN LIVING CELLS” (priority 2018, published 2021)
Structures can show the parent of a compound that is named as a salt. Where two headings read alike, the source gives them in different places. Marks after values point to notes of the source that are not given here.

Experiments:
[1] = tested on: mitochondria membrane potential; details: cited from earlier work
[2] = tested on: mitochondrial electron transport chain (mETC); assay: FACTORIAL assay: similarity of TFAP to the consensus (invariant) mETC TFAP; format: cell-based, human
DNA damage = assay: FACTORIAL assay: weak / strong DNA damage TFAP clusters; format: cell-based, human; details: HepG2, 24 h, all tested concentrations
HG19/HepG2 cells = format: cell-based
Experimental: Cell viability was evaluated by the XTT (2,3-Bis-(2-Methoxy-4-Nitro-5-Sulfophenyl)-2H-Tetrazolium-5-Carboxanilide) assay (ATCC) in HG19/HepG2 cells. As a baseline, cells are used that were treated with corresponding dilutions of the vehicle (DMSO). The viability data are an average of two replicates. The viability threshold was set at 80% viability.

Akt kinase = assay: FACTORIAL assay: similarity of TFAP to the invariant signature of Akt inhibitors; format: cell-based, human; details: for retrieved by querying the TFAP database with the invariant signature for AKT inhibitors: database of over 30,000 signatures
CDK = format: cell-based, human; details: HepG2, 24 h
HDAC = assay: FACTORIAL assay: similarity of TFAP to the consensus HDAC inhibitor TFAP; format: cell-based, human; details: for retrieved by querying the Attagene dataset with the HDAC TFAP: HepG2, ToxCast TFAP dataset
HepG2 cells [3] = assay: FACTORIAL assay: query of TFAPs against reference compound signatures of the Attagene TFAP database; format: cell-based, human; details: HepG2, 24 h
[4] = in humans; cited from earlier work
HepG2 cells [5] = assay: FACTORIAL assay: transition of the TFAP signature of glitazones with concentration; format: cell-based, human; details: HepG2, 24-hour treatment
[6] = tested on: ubiquitin (Ub)/proteasome pathway (UPP); assay: FACTORIAL assay: similarity of TFAP to the consensus UPP TFAP; format: cell-based, human
[7] = HepG2, 1-hour incubation at concentrations below 60 μM
[8] = HepG2, 24 h incubation, each value at the concentration [uM]

## CCc1cc(Cc2cc(CC)cc(C(C)(C)C)c2O)c(O)c(C(C)(C)C)c1
[1]; [7]
  MMP assay hitCall: 1
[2]; [8]
  Pearson correlation with the mETC TFAP, r: 0.827

## O=S(=O)(c1ccc(Cl)cc1)c1ccc(Cl)cc1 [4,4′-Dichlorodiphenyl sulfone]
[1]; [7]
  MMP assay hitCall: 1
[2]; [8]
  Pearson correlation with the mETC TFAP, r: 0.810

## O=c1[nH]cc(F)c(=O)[nH]1 [5-fluorouracil]
DNA damage
  DNA damage TFAP elicited (weak or strong damage cluster): only the weak damage TFAP

## COP(=S)(OC)SCn1nnc2ccccc2c1=O [Azinphos-methyl]
[1]; [7]
  MMP assay hitCall: 0*
[2]; [8]
  Pearson correlation with the mETC TFAP, r: 0.823

## CO/C=C(/C(=O)OC)c1ccccc1Oc1cc(Oc2ccccc2C#N)ncn1 [Azoxystrobin]
[1]; [7]
  MMP assay hitCall: 0*
[2]; [8]
  Pearson correlation with the mETC TFAP, r: 0.894

## CCCCC(CC)COP(=O)(O)OCC(CC)CCCC (stereo not shown) [Bis(2-ethylhexyl) phosphate]
[1]; [7]
  MMP assay hitCall: 1
[2]; [8]
  Pearson correlation with the mETC TFAP, r: 0.838

## CCC(C)(c1ccc(O)cc1)c1ccc(O)cc1 [Bisphenol B]
[1]; [7]
  MMP assay hitCall: 1
[2]; [8]
  Pearson correlation with the mETC TFAP, r: 0.861

## Oc1ccc(Cc2ccc(O)cc2)cc1 [Bisphenol F]
[1]; [7]
  MMP assay hitCall: 1
[2]; [8]
  Pearson correlation with the mETC TFAP, r: 0.835

## Cc1ccc(-c2cc(C(F)(F)F)nn2-c2ccc(S(N)(=O)=O)cc2)cc1 [Celecoxib, reference compound]
[2]; 24 h
  Pearson correlation with the mETC TFAP, r: 0.883

## N.N.[Cl][Pt][Cl] [Cisplatin, reference compound]
HG19/HepG2 cells
  cell numbers at the end of incubation: significantly reduced cell numbers
[1]; [7]
  MMP assay hitCall: 0*
[2]; [8]
  Pearson correlation with the mETC TFAP, r: 0.824

## CN(C)CCCN1c2ccccc2CCc2ccc(Cl)cc21 [Clomipramine hydrochloride, reference compound]
[1]; [7]
  MMP assay hitCall: 0*
[2]; 24 h
  Pearson correlation with the mETC TFAP, r: 0.806

## C[S+](C)[O-] [DMSO]
Akt kinase
  retrieved by querying the TFAP database with the invariant signature for AKT inhibitors: retrieved

## CC/C(=C(/CC)c1ccc(O)cc1)c1ccc(O)cc1 [Diethylstilbestrol, reference compound]
[1]; [7]
  MMP assay hitCall: 1
[2]; 24 h
  Pearson correlation with the mETC TFAP, r: 0.812

## CCc1cnn2c(NCc3ccc[n+]([O-])c3)cc(N3CCCC[C@H]3CCO)nc12 [Dinaciclib, reference compound]
CDK; over three logs of concentrations
  similarity r to the invariant signature for CDK inhibitors: > 0.85

## CCOC(=O)[C@@H](C)Oc1ccc(Oc2nc3ccc(Cl)cc3o2)cc1 [Fenoxaprop-P-ethyl]
[1]; [7]
  MMP assay hitCall: 0
[2]; [8]
  Pearson correlation with the mETC TFAP, r: 0.827

## CC(C)NC[C@@H](C(=O)N1CCN(c2ncnc3c2[C@H](C)C[C@H]3O)CC1)c1ccc(Cl)cc1 [GDC-0068, Ipatasertib, reference compound]
Akt kinase
  similarity r to the invariant signature of AKT inhibitors: > 0.80

## Cn1nccc1Nc1nccc(-c2ccn([C@H](CO)c3ccc(Cl)c(F)c3)c(=O)c2)n1 [GDC-0994]
HDAC; HepG2, 24 h, above 2.2 uM
  signature match at higher concentrations (HDAC inhibitors): matched the invariant signature of HDAC inhibitors

## COC(=O)N(C(=O)N1CO[C@@]2(C(=O)OC)Cc3cc(Cl)ccc3C2=N1)c1ccc(OC(F)(F)F)cc1 [Indoxacarb]
[1]; [7]
  MMP assay hitCall: 1
[2]; [8]
  Pearson correlation with the mETC TFAP, r: 0.887

## CCN(CC)C(=O)c1ccc(Nc2nc(OCC3CCCCC3)c3[nH]cnc3n2)cc1 [NU6140, reference compound]
CDK
  concentration with signature similar to the invariant signature for CDK inhibitors: 6.7 µM
HepG2 cells [3]; at 20 uM
  similarity r to the signature for a cadmium salt: 0.71

## NC(=O)N/N=C/c1ccc([N+](=O)[O-])o1 [Nitrofurazone, reference compound]
[1]; [7]
  MMP assay hitCall: 0*
[2]; 24 h
  Pearson correlation with the mETC TFAP, r: 0.856

## CO/C=C(/C(=O)OC)c1ccccc1COc1cccc(C(F)(F)F)n1 [Picoxystrobin]
[1]; [7]
  MMP assay hitCall: 1
[2]; [8]
  Pearson correlation with the mETC TFAP, r: 0.885

## CCN(CC)c1ccc2c(-c3ccccc3C(=O)O)c3ccc(=[N+](CC)CC)cc-3oc2c1.[Cl-] [Rhodamine B]
[1]; [7]
  MMP assay hitCall: 0
[2]; [8]
  Pearson correlation with the mETC TFAP, r: 0.810

## CCc1cccc(C)c1N(C(=O)CCl)[C@@H](C)COC [S-Metolachlor]
[1]; [7]
  MMP assay hitCall: 0
[2]; [8]
  Pearson correlation with the mETC TFAP, r: 0.856

## O.O.O.O.[Na+].[O-]c1ccccc1-c1ccccc1 [Sodium 2-phenylphenate tetrahydrate]
[1]; [7]
  MMP assay hitCall: 1
[2]; [8]
  Pearson correlation with the mETC TFAP, r: 0.807

## Cc1cc(C)c(C2=C(OC(=O)CC(C)(C)C)C3(CCCC3)OC2=O)c(C)c1 [Spiromesifen]
[1]; [7]
  MMP assay hitCall: 1
[2]; [8]
  Pearson correlation with the mETC TFAP, r: 0.816

## COC(=O)Nc1ccc(Cl)c(Cl)c1 [Swep]
[1]; [7]
  MMP assay hitCall: 1
[2]; [8]
  Pearson correlation with the mETC TFAP, r: 0.927

## Nc1c2c(nc3ccccc13)CCCC2 [Tacrine, reference compound]
[1]; [7]
  MMP assay hitCall: 0*
[2]; 24 h
  Pearson correlation with the mETC TFAP, r: 0.810

## COP(=O)(OC)C(O)C(Cl)(Cl)Cl (stereo not shown) [Trichlorfon]
[1]; [7]
  MMP assay hitCall: 0

## O=C(Nc1ccc(Cl)cc1)Nc1ccc(Cl)c(Cl)c1 [Triclocarban]
[1]; [7]
  MMP assay hitCall: 1

## Oc1cc(Cl)ccc1Oc1ccc(Cl)cc1Cl [Triclosan]
[1]; [7]
  MMP assay hitCall: 1

## CON=C(C(=O)OC)c1ccccc1CON=C(C)c1cccc(C(F)(F)F)c1 [Trifloxystrobin]
[1]; [7]
  MMP assay hitCall: 1

## O=P(Oc1ccccc1)(Oc1ccccc1)Oc1ccccc1 [Triphenyl phosphate]
[1]; [7]
  MMP assay hitCall: 1

## O=P(OCC(Br)CBr)(OCC(Br)CBr)OCC(Br)CBr (stereo not shown) [Tris(2,3-dibromopropyl) phosphate]
[1]
  MMP assay hitCall: 1

## Cc1c(C)c2c(c(C)c1O)CCC(C)(COc1ccc(CC3SC(=O)NC3=O)cc1)O2 (stereo not shown) [Troglitazone]
[4]
  maximum plasma concentration: 6.4 µM
HG19/HepG2 cells
  cell death: caused cell death
HepG2 cells [3]; at 60 uM
  similarity r with the TFAP for hydrogen peroxide: > 0.8
HepG2 cells [5]
  concentration of transformation into tertiary signature: 60 µM
  concentration of transformation of primary TFAP into secondary TFAP (threshold for off-target effects): 20 µM

## COP(=O)(OC)O/C(=C\Cl)c1cc(Cl)c(Cl)cc1Cl [Z-Tetrachlorvinphos]
[1]; [7]
  MMP assay hitCall: 1
[2]; [8]
  Pearson correlation with the mETC TFAP, r: 0.892

## CN(C)c1ccc(C(=N)c2ccc(N(C)C)cc2)cc1 [auramine, auramine O]
DNA damage
  DNA damage TFAP elicited (weak or strong damage cluster): only the strong damage TFAP

## [Cl][Cd][Cl] [cadmium chloride]
[6]
  retrieved by querying the Attagene dataset with the invariant UPP signature: retrieved

## CCO [ethanol]
Akt kinase
  retrieved by querying the TFAP database with the invariant signature for AKT inhibitors: retrieved

## O=c1[nH]c(=O)n([C@H]2C[C@H](O)[C@@H](CO)O2)cc1F [floxuridine]
DNA damage
  DNA damage TFAP elicited (weak or strong damage cluster): only the weak damage TFAP

## CC(C)C(=O)O [isobutyric acid]
HDAC
  retrieved by querying the Attagene dataset with the HDAC TFAP: retrieved

## Fc1ccc([C@@H]2CCNC[C@H]2COc2ccc3c(c2)OCO3)cc1 [paroxetine, reference compound]
Akt kinase
  retrieved by querying the TFAP database with the invariant signature for AKT inhibitors: retrieved

## CCc1ccc(CCOc2ccc(CC3SC(=O)NC3=O)cc2)nc1 (stereo not shown) [pioglitazone]
HepG2 cells [5]
  concentration of transformation of primary TFAP into secondary TFAP (threshold for off-target effects): 180 µM

## CC(/C=C/C(=O)NO)=C\[C@@H](C)C(=O)c1ccc(N(C)C)cc1 [trychostatin]
HDAC
  retrieved by querying the Attagene dataset with the HDAC TFAP: retrieved

## Bisphenol A glycidyl methacrylate
[1]; [7]
  MMP assay hitCall: 1
[2]; [8]
  Pearson correlation with the mETC TFAP, r: 0.939

## Chlorpyrifos oxon
[1]; [7]
  MMP assay hitCall: 1
[2]; [8]
  Pearson correlation with the mETC TFAP, r: 0.827

## Dinocap
[1]; [7]
  MMP assay hitCall: 1
[2]; [8]
  Pearson correlation with the mETC TFAP, r: 0.897

## Mancozeb
[1]; [7]
  MMP assay hitCall: 0*
[2]; [8]
  Pearson correlation with the mETC TFAP, r: 0.867

## triphenyltin
[6]; HepG2, ToxCast TFAP dataset
  retrieved by querying the Attagene dataset with the invariant UPP signature: retrieved
